Source: ChEMBL document CHEMBL1138504, “Lipophilicity of basic drugs measured by hydrophilic interaction chromatography” (J Med Chem, 2009)

Tests used:
[1] = buffer, pH 2
physchem [2] = details: octanol/water
[3] = buffer, pH 2; remark: listed apart in the source
physchem [4] = experiment: physchem
[5] = octanol/water

Structure (SMILES) | log K [1] | logP (physchem [2]) | log K [3] | pKa (physchem [4]) | logPc [5]
CN(C)Cc1ccccc1 | -0.23 | 1.91 | 0.43 | 9.02 | –
C=CCc1ccccc1OCC(O)CNC(C)C (stereo unspecified) [ALPRENOLOL] | -0.36 | – | 2.02 | – | 0.25
CN1CCc2cccc3c2[C@H]1Cc1ccc(O)c(O)c1-3 [APOMORPHINE] | 0.33 | 2.49 | 2.74 | – | –
CC(C)NCC(O)COc1ccc(COCCOC(C)C)cc1 (stereo unspecified) [BISOPROLOL] | -0.41 | – | 1.17 | – | -1.22
CCCCN [BUTYLAMINE] | 0.29 | – | 0.756 | 10.8 | –
CC(C)NCC(O)COc1cccc2[nH]c3ccccc3c12 (stereo unspecified) [CARAZOLOL] | -0.01 | – | 2.97 | 9.52 | 0.77
COc1ccccc1OCCNCC(O)COc1cccc2[nH]c3ccccc3c12 (stereo unspecified) [CARVEDILOL] | -0.2 | – | 3.1 | 7.97 | 1.92
Cc1cccc(C)c1NC(=O)C1CCCCN1C (stereo unspecified) [MEPIVACAINE] | -0.18 | – | 0.85 | 7.6 | –
CC([C@H](O)c1ccccc1)N(C)C (stereo partly specified) [METHYLEPHEDRINE] | -0.14 | 1.55 | 0.64 | 9 | –
CC(=O)Oc1c(C)cc(OCC(O)CNC(C)C)c(C)c1C (stereo unspecified) [METIPRANOLOL] | -0.5 | – | 1.57 | 9.54 | -0.26
COCCc1ccc(OCC(O)CNC(C)C)cc1 (stereo unspecified) [METOPROLOL] | -0.27 | – | 1.1 | – | -1.1
NCCO [MONOETHANOLAMINE] | 1.1 | – | -0.54 | 0.92 | –
C1COCCN1 [MORPHOLINE] | 0.48 | – | -0.27 | – | –
CC(=O)Oc1cc(C(C)C)c(OCCN(C)C)cc1C [MOXISYLYTE] | -0.86 | – | 1.53 | 8.72 | –
CC(C)(C)NCC(O)COc1cccc2c1CC(O)C(O)C2 (stereo unspecified) [NADOLOL] | 0.5 | 0.81 | 0.59 | – | –
CN1CCC[C@H]1c1cccnc1 [NICOTINE] | 0.14 | 1.34 | -0.02 | 3.4 | –
NCC(O)c1ccc(O)cc1 (stereo unspecified) [OCTOPAMINE] | 1.15 | – | 0.44 | 8.81 | –
C=CCOc1ccccc1OCC(O)CNC(C)C (stereo unspecified) [OXPRENOLOL] | -0.34 | – | 1.43 | 9.57 | -0.13
CC(C)(C)NC[C@H](O)COc1ccccc1C1CCCC1 [PENBUTOLOL] | -0.51 | 4.62 | 3.08 | 9.92 | 1.32
CC(C)NCC(O)COc1cccc2[nH]ccc12 (stereo unspecified) [PINDOLOL] | 0.08 | – | 1.63 | – | -1.32
CCCNC(C)C(=O)Nc1ccccc1C (stereo unspecified) [PRILOCAINE] | -0.17 | – | 0.93 | 7.8 | –
CCN(CC)CCOC(=O)c1ccc(N)cc1 [PROCAINE] | -0.26 | – | 1.05 | 9 | –
CC(C)NCC(O)COc1cccc2ccccc12 (stereo unspecified) [PROPRANOLOL] | -0.19 | – | 2.71 | – | –
C1COC(NC(C2CC2)C2CC2)=N1 [RILMENIDINE] | -0.41 | 1.7 | 0.88 | 9.22 | –
NCCc1c[nH]c2ccc(O)cc12 [SEROTONIN] | 1.15 | – | 1.19 | – | –
O=C1C[C@@H]2OCC=C3CN4CC[C@]56c7ccccc7N1[C@H]5[C@H]2[C@H]3C[C@H]46 [STRYCHNINE] | 0.06 | – | 1.18 | – | –
CC(C)(C)NC[C@H](O)COc1nsnc1N1CCOCC1 [TIMOLOL] | 0.08 | 2.12 | 0.9 | 9.53 | -0.94
COC(=O)[C@@H](N)Cc1ccc(O)cc1 [TYROSINE METHYL ESTER] | 0.57 | – | 0.26 | – | –
